Where two headings read alike, the source gives them in different places.
Assays:
Type in all cases: cell-based
[1] = test system: A549 (lung adenocarcinoma); experiment: Cell viability analysis (WST-1), lung cancer cell line A549; settings: Homo sapiens
[2] = test system: TSGH (bladder cancer cell line); experiment: Cell viability analysis (WST-1), bladder cancer cell line TSGH
Experimental: (§1) The cell numbers were counted and reseed as 2×10^6 in cell culture plate/flask. Then, the culture medium was added to a volume of 10 ml, and the cells were cultured for 2-3 days. Then, the cells were suspended for loading into 96-well plates. The cell number was 3000/well and the volume of the culture medium was 100 μl each well.
(§2) Removing the original culture medium from 96-well plate. Then add 100 μl of commercially drug at a concentration of 10 μM per well. After 72 hours, add the diluted WST-1 reagent to the well with 100 μl/well, and the diluted WST-1 reagent was acquired from the dilution of 9:1 medium and WST-1 stock reagent. Finally, the total volume of each well was 200 μl/well. Culture the 96-well plate at 37° C. for 30 to 90 minutes. Detecting and calculate the survival rate of each cancer cells with an ELISA reader at OD450 nm.

[3] = test system: T24 (bladder cancer cell line); experiment: Cell viability analysis (WST-1), bladder cancer cell line T24; settings: T24, 10 μM
Experimental: as §1, §2

[4] = test system: HeLa (Cervix Adenocarcinoma); experiment: Cell viability analysis (WST-1), cervical cancer cell line HeLa; settings: Homo sapiens
Experimental: as §1, §2

[5] = test system: C-33A (Cervical carcinoma); experiment: Cell viability analysis (WST-1), cervical cancer cell line C-33A; settings: Homo sapiens, 72 h
Experimental: as §1, §2

[6] = test system: PC-3 (Prostate adenocarcinoma); experiment: Cell viability analysis (WST-1), prostate cancer cell line PC-3; settings: PC-3, 10 μM
Experimental: as §1, §2

[7] = test system: LNCap (prostate cancer cell line); experiment: Cell viability analysis (WST-1), prostate cancer cell line LNCap; settings: Homo sapiens
Experimental: as §1, §2

[8] = test system: NIH-OVCAR-3 (ovarian cancer cell line); experiment: Cell viability analysis (WST-1), ovarian cancer cell line NIH-OVCAR-3; settings: Homo sapiens
Experimental: as §1, §2

[9] = test system: AGS (Gastric Adenocarcinoma); experiment: Cell viability analysis (WST-1), gastric cancer cell line AGS
Experimental: as §1, §2

[10] = test system: Hep3B (hepatocellular carcinoma); experiment: Cell viability analysis (WST-1), hepatic cancer cell line Hep3B; settings: Homo sapiens
[11] = test system: HCT116-wt (colorectal carcinoma); experiment: Cell viability analysis (WST-1), colorectal cancer cell line HCT116-wt
Experimental: as §1, §2

[12] = test system: U2OS (osteosarcoma cell line); experiment: Cell viability analysis (WST-1), osteosarcoma cell line U2OS; settings: Homo sapiens
Experimental: as §1, §2

[13] = test system: BCC (basal cell carcinoma); experiment: Cell viability analysis (WST-1), skin cancer cell line BCC
Experimental: as §1, §2

[14] = Cell viability analysis (WST-1), human fibroblast cell line HFW; settings: HFW fibroblast cells (normal)
Experimental: as §1, §2

lung cancer cell = experiment: Summary of the effect on lung cancer cell (A549, H1650); settings: lung cancer cell (mean of A549 and H1650 averages), 72 hours, read-out: Inhibitory effect
Experimental: as §2

cervical cancer cell = experiment: Summary of the effect on cervical cancer cell (HeLa, C-33A); settings: cervical cancer cell (mean of HeLa and C-33A averages), 72 hours, read-out: Inhibitory effect
Experimental: as §2

breast cancer cell = experiment: Summary of the effect on breast cancer cell (MCF7, MDA-MB-231); settings: breast cancer cell (mean of MCF7 and MDA-MB-231 averages), 72 hours, read-out: Inhibitory effect
Experimental: as §2

pancreatic cancer cell = experiment: Summary of the effect on pancreatic cancer cell (AsPC-1, BxPC-3); settings: pancreatic cancer cell (mean of AsPC-1 and BxPC-3 averages), 72 hours, read-out: Inhibitory effect
Experimental: as §2

skin cancer cell = experiment: Summary of the effect on skin cancer cell (A375, BCC); settings: Homo sapiens, A-375, skin cancer cell (mean of A375 and BCC averages), 72 hours, read-out: Inhibitory effect
Experimental: as §2

various cancer cells = experiment: Inhibition test on all kinds of cancer cells (overall statement); settings: FIG. 1
Experimental: as §2

normal cells = experiment: Toxicity to normal cells (overall statement)
[15] = 72 h, average of 4 tests, read-out: inhibition effect (survival rate of cells), average
[16] = 72 hours, test 0510-10 min, read-out: inhibition effect (survival rate of cells)
[17] = 72 hours, test 0512-10 min, read-out: inhibition effect (survival rate of cells)
[18] = 72 hours, test 0515-10 min, read-out: inhibition effect (survival rate of cells)
[19] = 72 hours, test 0517-10 min, read-out: inhibition effect (survival rate of cells)
[20] = average of 4 tests, read-out: inhibition effect (survival rate of cells), average
[21] = 72 hours, test 0602-30 min, read-out: inhibition effect (survival rate of cells)
[22] = 72 hours, test 0605-10 min, read-out: inhibition effect (survival rate of cells)
[23] = 72 hours, test 0607-10 min, read-out: inhibition effect (survival rate of cells)
[24] = 72 hours, test 0609-10 min, read-out: inhibition effect (survival rate of cells)

Oc1ccc(OCc2ccccc2)cc1 [Monobenzone]
viability at 10 µM ([1]; A549, 72 h, A549, 10 μM, average of 4 tests, read-out: inhibition effect (survival rate of cells), Average): 93.4%
viability at 10 µM ([1]; A549, A549, 10 μM, 72 hours, test 0524-10 min, read-out: inhibition effect (survival rate of cells)): 80.8%
viability at 10 µM ([1]; A549, A549, 10 μM, 72 hours, test 0526-10 min, read-out: inhibition effect (survival rate of cells)): 111%
viability at 10 µM ([1]; A549, A549, 10 μM, 72 hours, test 0529-10 min, read-out: inhibition effect (survival rate of cells)): 80.8%
viability at 10 µM [2, 15]: 84.6%
viability at 10 µM [2, 16]: 90.2%
viability at 10 µM [2, 17]: 92.8%
viability at 10 µM [2, 18]: 83%
viability at 10 µM [2, 19]: 72.5%
viability at 10 µM [3, 15]: 87%
viability at 10 µM ([3]; 72 hours, test T24-1-30 min, read-out: inhibition effect (survival rate of cells)): 93.5%
viability at 10 µM ([3]; 72 hours, test T24-2-20 min, read-out: inhibition effect (survival rate of cells)): 70.4%
viability at 10 µM ([3]; 72 hours, test T24-3-20 min, read-out: inhibition effect (survival rate of cells)): 89.4%
viability at 10 µM ([3]; 72 hours, test T24-4-20 min, read-out: inhibition effect (survival rate of cells)): 94.7%
viability at 10 µM [4, 15]: 80.1%
viability at 10 µM ([4]; 72 hours, test 0524-10 min, read-out: inhibition effect (survival rate of cells)): 82.8%
viability at 10 µM ([4]; 72 hours, test 0526-10 min, read-out: inhibition effect (survival rate of cells)): 72.8%
viability at 10 µM ([4]; 72 hours, test 0529-10 min, read-out: inhibition effect (survival rate of cells)): 82.7%
viability at 10 µM ([4]; 72 hours, test 0531-10 min, read-out: inhibition effect (survival rate of cells)): 81.9%
viability at 10 µM [5, 20]: 62.3%
viability at 10 µM ([5]; test 1, read-out: inhibition effect (survival rate of cells)): 57.9%
viability at 10 µM ([5]; test 2, read-out: inhibition effect (survival rate of cells)): 66.2%
viability at 10 µM ([5]; test 3, read-out: inhibition effect (survival rate of cells)): 61%
viability at 10 µM ([5]; test 4, read-out: inhibition effect (survival rate of cells)): 64.3%
viability at 10 µM [6, 15]: 62.5%
viability at 10 µM ([6]; 72 hours, test PC-3-0524-10 min, read-out: inhibition effect (survival rate of cells)): 57%
viability at 10 µM ([6]; 72 hours, test PC-3-0526-10 min, read-out: inhibition effect (survival rate of cells)): 70.6%
viability at 10 µM ([6]; 72 hours, test PC-3-0529-10 min, read-out: inhibition effect (survival rate of cells)): 63.2%
viability at 10 µM ([6]; 72 hours, test PC-3-0531-10 min, read-out: inhibition effect (survival rate of cells)): 59%
viability at 10 µM [7, 15]: 67.9%
viability at 10 µM ([7]; 72 hours, test LNCap-1-10 min, read-out: inhibition effect (survival rate of cells)): 65.5%
viability at 10 µM ([7]; 72 hours, test LNCap-2-20 min, read-out: inhibition effect (survival rate of cells)): 52.7%
viability at 10 µM ([7]; 72 hours, test LNCap-3-20 min, read-out: inhibition effect (survival rate of cells)): 81.6%
viability at 10 µM ([7]; 72 hours, test LNCap-4-20 min, read-out: inhibition effect (survival rate of cells)): 71.6%
viability at 10 µM ([8]; OVCAR-3, 72 h, NIH-OVCAR-3, 10 μM, average of 4 tests, read-out: inhibition effect (survival rate of cells), average): 91.5%
viability at 10 µM ([8]; OVCAR-3, NIH-OVCAR-3, 10 μM, 72 hours, test 7-3-30 min, read-out: inhibition effect (survival rate of cells)): 88.3%
viability at 10 µM ([8]; OVCAR-3, NIH-OVCAR-3, 10 μM, 72 hours, test 7-4-30 min, read-out: inhibition effect (survival rate of cells)): 96.6%
viability at 10 µM ([8]; OVCAR-3, NIH-OVCAR-3, 10 μM, 72 hours, test 7-7-30 min, read-out: inhibition effect (survival rate of cells)): 88.3%
viability at 10 µM ([8]; OVCAR-3, NIH-OVCAR-3, 10 μM, 72 hours, test −4-30 min, read-out: inhibition effect (survival rate of cells)): 92.7%
viability at 10 µM [9, 15]: 68.4%
viability at 10 µM [9, 16]: 85.2%
viability at 10 µM [9, 17]: 51.3%
viability at 10 µM [9, 18]: 62.2%
viability at 10 µM [9, 19]: 74.9%
viability at 10 µM [10, 15]: 106%
viability at 10 µM ([10]; 72 hours, test 0612-20 min, read-out: inhibition effect (survival rate of cells)): 111%
viability at 10 µM ([10]; 72 hours, test 0614-20 min, read-out: inhibition effect (survival rate of cells)): 116%
viability at 10 µM ([10]; 72 hours, test 0616-20 min, read-out: inhibition effect (survival rate of cells)): 96.8%
viability at 10 µM [11, 15]: 95%
viability at 10 µM [11, 21]: 91.1%
viability at 10 µM [11, 22]: 104%
viability at 10 µM [11, 23]: 99.9%
viability at 10 µM [11, 24]: 85.3%
viability at 10 µM [12, 15]: 72.7%
viability at 10 µM ([12]; 72 h, osteosarcoma cell (U2OS average), read-out: Inhibitory effect): 72.7%
viability at 10 µM ([12]; 72 hours, test 6-26-10 min, read-out: inhibition effect (survival rate of cells)): 69.3%
viability at 10 µM ([12]; 72 hours, test 6-28-10 min, read-out: inhibition effect (survival rate of cells)): 66.7%
viability at 10 µM ([12]; 72 hours, test 6-30-10 min, read-out: inhibition effect (survival rate of cells)): 73%
viability at 10 µM ([12]; 72 hours, test 7-3-10 min, read-out: inhibition effect (survival rate of cells)): 81.7%
viability at 10 µM ([13]; 72 h, average of 4 tests, read-out: inhibition effect (survival rate of cells), Average): 50.1%
viability at 10 µM [13, 21]: 48.2%
viability at 10 µM [13, 22]: 59.8%
viability at 10 µM [13, 23]: 38.6%
viability at 10 µM [13, 24]: 53.8%
viability at 72 h, 10 µM [14, 20]: 85.4%
viability at 72 h, 10 µM ([14]; test 0612-10 min, read-out: inhibition effect (survival rate of cells)): 120%
viability at 72 h, 10 µM ([14]; test 0614-10 min, read-out: inhibition effect (survival rate of cells)): 74.9%
viability at 72 h, 10 µM ([14]; test 0616-10 min, read-out: inhibition effect (survival rate of cells)): 68.1%
viability at 72 h, 10 µM ([14]; test 0619-10 min, read-out: inhibition effect (survival rate of cells)): 79.1%
viability at 10 µM (lung cancer cell): 89.8%
viability at 10 µM (cervical cancer cell): 71.2%
viability at 10 µM (breast cancer cell): 87.9%
viability at 10 µM (pancreatic cancer cell): 86.8%
viability at 10 µM (skin cancer cell): 63.2%
inhibitory effect and specificity on various cancer cells (in words) (various cancer cells): significant inhibitory effect and specificity on various cancer cells
toxicity to normal cells (in words) (normal cells): no toxicity or had little toxicity to normal cells
